SMILES strings stand for the structures.

Experimental findings from patent US20220073496A1, “NOVEL QUINOLINE DERIVATIVE INHIBITOR” (Nanjing Transthera Biosciences Co., Ltd., priority 2018, published 2022) are described below.

Assay [1] has as its target T1, CSF1R (h) (Homo sapiens, UniProt P07333).
T1 construct: purchased
As to the kind of experiment: Enzymatic activity test, CSF1R (h). Type of assay: biochemical. To be noted: 10 μM [γ-33P]-ATP, 40 minutes, room temperature. On the procedure: Assay 3: Enzymatic Activity Test of the Compounds of the Present Invention
Test substances: the compounds of the present invention, wherein the structures and preparations thereof were as described above.
(1) Preparation of the Compound Stock Solution
The compound was dissolved in 100% DMSO to prepare a stock solution with a maximum concentration of 500 μM.
(2) Preparation of the Compound Working Solution
The compound stock solution was diluted to final concentrations of 500, 150, 50, 15, 5, 1.5, 0.5, 0.15 and 0.05 μM to become the compound working solutions (50×).
(3) Preparation of Different Enzyme Reaction Solutions
The enzymatic reaction was activated by using 10 mM magnesium acetate and 10 μM [γ-^33P]-ATP to form an Mg/ATP mixed solution.
In a 384-well plate, the compound working solution was added to final concentrations of 10000, 3000, 1000, 300, 100, 30, 10, 3, and 1 nM. Then different enzyme reaction solutions prepared according to the above conditions were added. The incubation was carried out for 40 minutes at room temperature. The test was terminated by the addition of a 0.5% phosphoric acid solution. 10 μL of the reaction solution was taken and dropped to the P30 filter paper. […] The grayscale analysis of the results was performed using Image J software and the IC50 values were calculated using GraphPad 5.0 software.

Assay [2] addresses T2, H1299 cell pMer (Homo sapiens, UniProt Q12866).
T2 construct: The H1299 cells were inoculated in a 6-well plate; endogenous in cells; host or cells: H1299
T2 sequence (Q12866 21-999): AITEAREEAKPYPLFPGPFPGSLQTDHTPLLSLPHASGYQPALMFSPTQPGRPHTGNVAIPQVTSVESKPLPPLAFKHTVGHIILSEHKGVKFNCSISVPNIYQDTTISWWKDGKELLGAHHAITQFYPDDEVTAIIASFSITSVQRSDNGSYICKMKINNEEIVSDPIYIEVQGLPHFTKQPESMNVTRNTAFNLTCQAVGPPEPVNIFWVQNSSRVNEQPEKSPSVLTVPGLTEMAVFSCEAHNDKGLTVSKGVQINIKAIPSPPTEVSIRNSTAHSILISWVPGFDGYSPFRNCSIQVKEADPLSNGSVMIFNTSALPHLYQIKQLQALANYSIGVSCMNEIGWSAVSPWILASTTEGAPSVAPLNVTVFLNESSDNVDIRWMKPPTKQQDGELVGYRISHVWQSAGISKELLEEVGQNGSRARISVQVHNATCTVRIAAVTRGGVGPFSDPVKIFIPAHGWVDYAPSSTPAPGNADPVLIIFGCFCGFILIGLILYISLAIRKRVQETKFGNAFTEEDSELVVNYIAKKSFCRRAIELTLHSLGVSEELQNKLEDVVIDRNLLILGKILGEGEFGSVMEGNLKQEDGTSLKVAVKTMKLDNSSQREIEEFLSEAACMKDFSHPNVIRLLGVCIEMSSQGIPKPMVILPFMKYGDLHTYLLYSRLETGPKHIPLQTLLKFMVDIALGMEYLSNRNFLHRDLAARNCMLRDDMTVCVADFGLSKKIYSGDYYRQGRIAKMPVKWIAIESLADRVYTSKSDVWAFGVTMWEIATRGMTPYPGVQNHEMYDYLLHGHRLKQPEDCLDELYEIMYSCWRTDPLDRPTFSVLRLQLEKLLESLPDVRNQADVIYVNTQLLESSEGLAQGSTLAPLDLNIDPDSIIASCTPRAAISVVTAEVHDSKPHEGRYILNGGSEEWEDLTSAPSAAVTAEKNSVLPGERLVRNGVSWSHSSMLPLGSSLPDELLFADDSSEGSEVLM
Kind of assay: Inhibitory activity on the cell pMer (Western Blot). To be noted: H1299 cells, compound 0.35, 1.1, 3.3, 10 nM, Human MerMab 200 ng/mL. Type of assay: cell-based. On the procedure: Assay 6: Test for Inhibitory Activities of the Compounds of the Present Invention on the Cell pMer
H1299 is a non-small cell lung cancer cell.
Test substances: the compounds of the present invention, wherein the structures thereof were as described above.
Test equipment: protein electrophoresis apparatus (manufactured by Bio Rad), transfer unit (manufactured by Bio Rad), exposure unit (manufactured by Tanon), CO2 cell incubator (manufactured by Thermo).
The H1299 cells were inoculated in a 6-well plate (containing 10% FBS 1640 medium, 5×10^5 cells per well), and adherent cells were cultivated at 37° C. in a 5% CO2 condition for 18 hours. The cells were starved overnight. Different concentrations of compounds were added. The final compound concentrations were 0.35, 1.1, 3.3 and 10 nM, and the final DMSO content was 1‰. The negative control wells contained the medium containing 1‰ DMSO. After incubating at 37° C. in a 5% CO2 condition for 60 minutes, Human MerMab (R&D, final concentration 200 ng/mL) was added to each well. After further incubating for 60 minutes, the cell total protein was extracted for Western Blot and the IC50 values were calculated using GraphPad 5.0 software. The inhibitory activity of the compound on the cell pMer was examined.
(A western blot detects proteins with antibodies after separation by electrophoresis.)

T1 sequence (P07333 20-972): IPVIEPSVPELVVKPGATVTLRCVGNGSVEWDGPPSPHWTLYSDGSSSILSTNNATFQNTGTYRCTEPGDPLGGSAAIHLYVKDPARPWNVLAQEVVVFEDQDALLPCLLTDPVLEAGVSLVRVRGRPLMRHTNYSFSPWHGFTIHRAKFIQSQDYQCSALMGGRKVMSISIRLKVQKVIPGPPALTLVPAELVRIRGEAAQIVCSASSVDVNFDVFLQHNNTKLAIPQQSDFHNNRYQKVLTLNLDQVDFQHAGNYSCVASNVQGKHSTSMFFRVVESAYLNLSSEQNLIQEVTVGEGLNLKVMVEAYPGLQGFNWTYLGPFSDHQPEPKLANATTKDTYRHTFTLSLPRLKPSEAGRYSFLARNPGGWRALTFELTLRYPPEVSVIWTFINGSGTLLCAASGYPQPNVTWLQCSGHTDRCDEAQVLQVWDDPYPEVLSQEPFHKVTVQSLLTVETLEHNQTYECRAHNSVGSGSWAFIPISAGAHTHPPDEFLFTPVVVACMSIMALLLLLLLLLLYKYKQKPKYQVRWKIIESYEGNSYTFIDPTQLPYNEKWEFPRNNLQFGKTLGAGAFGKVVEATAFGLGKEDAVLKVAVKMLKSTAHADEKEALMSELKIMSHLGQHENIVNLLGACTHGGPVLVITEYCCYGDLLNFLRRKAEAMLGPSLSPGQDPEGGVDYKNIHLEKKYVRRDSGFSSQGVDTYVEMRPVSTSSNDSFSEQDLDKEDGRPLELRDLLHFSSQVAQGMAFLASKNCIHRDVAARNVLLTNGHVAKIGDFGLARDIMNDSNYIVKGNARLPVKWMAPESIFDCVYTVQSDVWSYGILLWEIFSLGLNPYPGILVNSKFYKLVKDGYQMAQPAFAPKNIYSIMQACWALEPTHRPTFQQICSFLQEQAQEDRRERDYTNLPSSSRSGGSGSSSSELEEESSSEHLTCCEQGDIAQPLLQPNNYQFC

As usually defined, the IC50 is the concentration at which inhibition is half-maximal. Read a low IC50 as higher potency. Regarding `COc1cc2nccc(Oc3ccc(NC(=O)c4cn(C(C)C)cc(-c5ccc(F)cc5)c4=O)nc3)c2cc1OC` [Compound 14, N-(5-((6,7-dimethoxyquinolin-4-yl)oxy)pyridin-2-yl)-5-(4-fluorophenyl)-1-isopropyl-4-oxo-1,4-dihydropyridin-3-carboxamide], the results for the IC50 in assay [1] and in assay [2] were 55 nM and 0.35 nM, respectively.
Take `COc1cc2nccc(Oc3cnc(NC(=O)c4cn(C5CC5)cc(-c5ccc(F)cc5)c4=O)nc3)c2cc1OC` [Compound 32, 1-cyclopropyl-N-(5-((6,7-dimethoxyquinolin-4-yl)oxy)pyrimidine-2-yl)-5-(4-fluorophenyl)-4-oxo-1,4-dihydropyridin-3-carboxamide]: the concentration for half-maximal inhibition (IC50) in assay [1] was 93 nM; in assay [2], below 1.1 nM.
